These results are taken from ChEMBL document CHEMBL1136306, “Design and synthesis of a new fluorescent probe for cytochrome P450 3A4 (CYP 3A4)” (Bioorg Med Chem Lett, 2003).

In this assay the target is Cytochrome P450 3A4 (Homo sapiens, UniProt P08684).
Cytochrome P450 3A4, sequence (P08684 whole entry): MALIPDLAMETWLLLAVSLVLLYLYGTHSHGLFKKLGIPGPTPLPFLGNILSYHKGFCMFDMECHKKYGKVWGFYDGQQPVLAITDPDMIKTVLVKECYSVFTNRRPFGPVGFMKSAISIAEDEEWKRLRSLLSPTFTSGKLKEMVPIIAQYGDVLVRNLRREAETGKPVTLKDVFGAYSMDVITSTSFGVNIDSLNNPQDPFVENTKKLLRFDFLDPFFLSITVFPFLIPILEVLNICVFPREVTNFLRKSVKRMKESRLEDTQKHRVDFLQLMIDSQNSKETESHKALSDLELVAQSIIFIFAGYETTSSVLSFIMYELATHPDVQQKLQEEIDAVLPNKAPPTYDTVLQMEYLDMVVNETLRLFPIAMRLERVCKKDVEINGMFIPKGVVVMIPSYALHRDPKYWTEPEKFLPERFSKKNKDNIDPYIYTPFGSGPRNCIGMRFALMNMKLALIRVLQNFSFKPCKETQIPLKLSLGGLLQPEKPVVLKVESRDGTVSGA

What is called IC50 is the concentration needed to halve the response being measured. High values mean weaker potency, low ones greater potency. In turn, `OC1N=C(c2ccccc2F)c2cc(Cl)ccc2-n2cncc21` (configuration not stated) came in with a concentration for half-maximal inhibition (IC50) of 10 µM.

For `OCc1ncc2n1-c1ccc(Cl)cc1C(c1ccccc1F)=NC2` [ALPHA-HYDROXY-MIDAZOLAM], inhibition was half-maximal at 10 µM (IC50).
